# Test results reported in patent EP0745599A2, “1-(3-Heterocyclylphenyl)-s-triazine-2,4,6-oxo or thiotrione herbicidal agents” (American Cyanamid Company, priority 1995, dated 1996).
# Experiments:
# Format in all cases: in vivo
# Details in all cases: rated four to five weeks after treatment
# [1] = tested on: ABUTILON THEOPHRASTI, MEDIC.; test: Postemergence herbicidal evaluation, ABUTH (Velvetleaf)
# Description: (§1) In the tests, seedling plants are grown in jiffy flats for about two weeks. The test compounds are dispersed in 50/50 acetone/water mixtures containing 0.5% TWEEN®20, a polyoxyethylene sorbitan monolaurate surfactant of Atlas Chemical Industries, in sufficient quantities to provide the equivalent of about 0.125 kg to 0.500 kg per hectare of active compound when applied to the plants through a spray nozzle operating at 40 psi for a predetermined time. After spraying, the plants are placed on greenhouse benches and are cared for in the usual manner, commensurate with conventional greenhouse practices. From four to five weeks after treatment, the seedling plants are examined and rated according to the rating system set forth below. Where more than one test is involved for a given compound, the data are averaged.
# (§2) Results of herbicide evaluation are expressed on a rating scale (0-9). The scale is based upon a visual observation of plant stand, vigor, malformation, size, chlorosis and overall plant appearance as compared with a control.
# [2] = tested on: ORYZA SATIVA, L. TEBONNET; test: Postemergence herbicidal evaluation, ORYSAT (Rice, Tebonnet)
# Description: as §1, §2
# [3] = tested on: ZEA MAYS L.; test: Postemergence herbicidal evaluation, ZEAMX (Corn, Field)
# Description: as §1, §2
# [4] = tested on: CHENOPODIUM ALBUM, L.; test: Preemergence herbicidal evaluation, CHEAL (Lambsquarters, Common)
# In short: (§3)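 Seeds sown on potting soil in cups; soil surface sprayed with aqueous acetone solution of test compound at about 0.125 to 0.50 kg per hectare. Greenhouse-grown, rated four to five weeks after treatment on a 0-9 visual scale (stand, vigor, malformation, size, chlorosis) versus untreated control.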
# [5] = tested on: GALIUM APARINE; test: Preemergence herbicidal evaluation, GALAP (Galium)
# In short: as §3
# [6] = tested on: ECHINOCHLOA CRUS-GALLI, (L) BEAU; test: Preemergence herbicidal evaluation, ECHCG (Barnyardgrass)
# In short: as §3
# [7] = tested on: GLYCINE MAX(L)MERR. CV. WILLIAMS; test: Preemergence herbicidal evaluation, GLXMAW (Soybean, Williams)
# In short: as §3
# [8] = tested on: AMBROSIA ARTEMISIIFOLIA, L.; test: Postemergence herbicidal evaluation, AMBEL (Ragweed, Common)
# Description: as §1, §2
# [9] = tested on: CASSIA OBTUSIFOLIA, L.; test: Postemergence herbicidal evaluation, CASOB (Sicklepod)
# Description: as §1, §2
# [10] = tested on: CHENOPODIUM ALBUM, L.; test: Postemergence herbicidal evaluation, CHEAL (Lambsquarters, Common)
# Description: as §1, §2
# [11] = tested on: ECHINOCHLOA CRUS-GALLI, (L) BEAU; test: Postemergence herbicidal evaluation, ECHCG (Barnyardgrass)
# In short: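 Visual 0–9 ratings against untreated control, taken four to five weeks post-spray, score stand, vigor, malformation, size, chlorosis and overall appearance. Treatment was a postemergence spray at about 0.125 to 0.500 kg/ha on roughly two-week-old seedlings.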
# [12] = tested on: ABUTILON THEOPHRASTI, MEDIC.; test: Preemergence herbicidal evaluation, ABUTH (Velvetleaf)
# In short: as §3
# [13] = tested on: AMBROSIA ARTEMISIIFOLIA, L.; test: Preemergence herbicidal evaluation, AMBEL (Ragweed, Common)
# In short: as §3
# [14] = tested on: CASSIA OBTUSIFOLIA, L.; test: Preemergence herbicidal evaluation, CASOB (Sicklepod)
# In short: as §3
# [15] = tested on: IPOMOEA SPP.; test: Preemergence herbicidal evaluation, IPOSS (Morningglory Spp.)
# In short: as §3
# [16] = tested on: SETARIA VIRIDIS, (L) BEAU; test: Preemergence herbicidal evaluation, SETVI (Foxtail, Green)
# In short: as §3
# [17] = tested on: ORYZA SATIVA, L. TEBONNET; test: Preemergence herbicidal evaluation, ORYSAT (Rice, Tebonnet)
# In short: as §3
# [18] = tested on: TRITICUM AESTIVUM, CV. APOLLO; test: Preemergence herbicidal evaluation, TRZAWO (Wheat, Winter, CV. APOLLO)
# In short: as §3
# [19] = tested on: ZEA MAYS L.; test: Preemergence herbicidal evaluation, ZEAMX (Corn, Field)
# In short: as §3
# [20] = tested on: TRITICUM AESTIVUM, CV. APOLLO; test: Postemergence herbicidal evaluation, TRZAWO (Wheat, Winter, CV. APOLLO)
# Description: as §1, §2
smiles,measurement,setting,value
"CC(C)OC(=O)Cn1c(=O)n(C)c(=O)n(-c2cc(N3C(=O)C4=C(CCCC4)C3=O)c(F)cc2Cl)c1=O [Compound 4, Isopropyl 3-[2-chloro-5-(1-cyclohexene-1,2-dicarboximido)-4-fluorophenyl]tetrahydro-5-methyl-2,4,6-trioxo-s-triazine-1(2H)-acetate]",Herbicide rating (0-9) ABUTH,[1]; 0.125 kg/ha,9.0
same,Herbicide rating (0-9) ABUTH,[1]; 0.250 kg/ha,9.0
same,Herbicide rating (0-9) ABUTH,[1]; 0.500 kg/ha,9.0
same,Herbicide rating (0-9) ORYSAT,[2]; 0.125 kg/ha,4.0
same,Herbicide rating (0-9) ORYSAT,[2]; 0.250 kg/ha,4.0
same,Herbicide rating (0-9) ORYSAT,[2]; 0.500 kg/ha,4.0
same,Herbicide rating (0-9) ZEAMX,[3]; 0.125 kg/ha,4.5
same,Herbicide rating (0-9) ZEAMX,[3]; 0.250 kg/ha,4.5
same,Herbicide rating (0-9) ZEAMX,[3]; 0.500 kg/ha,4.5
same,Herbicide rating (0-9) CHEAL,[4]; 0.125 kg/ha,9.0
same,Herbicide rating (0-9) CHEAL,[4]; 0.250 kg/ha,9.0
same,Herbicide rating (0-9) CHEAL,[4]; 0.500 kg/ha,9.0
same,Herbicide rating (0-9) GALAP,[5]; 0.125 kg/ha,9.0
same,Herbicide rating (0-9) GALAP,[5]; 0.250 kg/ha,9.0
same,Herbicide rating (0-9) GALAP,[5]; 0.500 kg/ha,9.0
same,Herbicide rating (0-9) ECHCG,[6]; 0.125 kg/ha,0.0
same,Herbicide rating (0-9) ECHCG,[6]; 0.250 kg/ha,0.0
same,Herbicide rating (0-9) ECHCG,[6]; 0.500 kg/ha,0.0
same,Herbicide rating (0-9) GLXMAW,[7]; 0.125 kg/ha,0.0
same,Herbicide rating (0-9) GLXMAW,[7]; 0.250 kg/ha,0.0
same,Herbicide rating (0-9) GLXMAW,[7]; 0.500 kg/ha,0.0
"COC(=O)Cn1c(=O)n(C)c(=O)n(-c2cc(N3C(=O)C4=C(CCCC4)C3=O)ccc2F)c1=O [Compound 5, Methyl 3-[5-(1-cyclohexene-1,2-dicarbox-imido)-2-fluorophenyl]tetrahydro-5-methyl-2,4,6-trioxo-s-triazine-1(2H)-acetate]",Herbicide rating (0-9) AMBEL,[8]; 0.125 kg/ha,2.0
same,Herbicide rating (0-9) AMBEL,[8]; 0.250 kg/ha,2.0
same,Herbicide rating (0-9) AMBEL,[8]; 0.500 kg/ha,2.0
same,Herbicide rating (0-9) CASOB,[9]; 0.125 kg/ha,0.0
same,Herbicide rating (0-9) CASOB,[9]; 0.250 kg/ha,0.0
same,Herbicide rating (0-9) CASOB,[9]; 0.500 kg/ha,0.0
same,Herbicide rating (0-9) CHEAL,[10]; 0.125 kg/ha,0.0
same,Herbicide rating (0-9) CHEAL,[10]; 0.250 kg/ha,0.0
same,Herbicide rating (0-9) CHEAL,[10]; 0.500 kg/ha,0.0
same,Herbicide rating (0-9) ECHCG,[11]; 0.125 kg/ha,0.0
same,Herbicide rating (0-9) ECHCG,[11]; 0.250 kg/ha,0.0
same,Herbicide rating (0-9) ECHCG,[11]; 0.500 kg/ha,0.0
same,Herbicide rating (0-9) ABUTH,[12]; 0.125 kg/ha,0.0
same,Herbicide rating (0-9) ABUTH,[12]; 0.250 kg/ha,0.0
same,Herbicide rating (0-9) ABUTH,[12]; 0.500 kg/ha,0.0
same,Herbicide rating (0-9) AMBEL,[13]; 0.125 kg/ha,0.0
same,Herbicide rating (0-9) AMBEL,[13]; 0.250 kg/ha,0.0
same,Herbicide rating (0-9) AMBEL,[13]; 0.500 kg/ha,0.0
same,Herbicide rating (0-9) CASOB,[14]; 0.125 kg/ha,0.0
same,Herbicide rating (0-9) CASOB,[14]; 0.250 kg/ha,0.0
same,Herbicide rating (0-9) CASOB,[14]; 0.500 kg/ha,0.0
same,Herbicide rating (0-9) CHEAL,[4]; 0.125 kg/ha,0.0
same,Herbicide rating (0-9) CHEAL,[4]; 0.250 kg/ha,0.0
same,Herbicide rating (0-9) CHEAL,[4]; 0.500 kg/ha,0.0
same,Herbicide rating (0-9) IPOSS,[15]; 0.125 kg/ha,0.0
same,Herbicide rating (0-9) IPOSS,[15]; 0.250 kg/ha,0.0
same,Herbicide rating (0-9) IPOSS,[15]; 0.500 kg/ha,0.0
same,Herbicide rating (0-9) GALAP,[5]; 0.125 kg/ha,0.0
same,Herbicide rating (0-9) GALAP,[5]; 0.250 kg/ha,0.0
same,Herbicide rating (0-9) GALAP,[5]; 0.500 kg/ha,0.0
same,Herbicide rating (0-9) ECHCG,[6]; 0.125 kg/ha,0.0
same,Herbicide rating (0-9) ECHCG,[6]; 0.250 kg/ha,0.0
same,Herbicide rating (0-9) ECHCG,[6]; 0.500 kg/ha,0.0
same,Herbicide rating (0-9) SETVI,[16]; 0.125 kg/ha,0.0
same,Herbicide rating (0-9) SETVI,[16]; 0.250 kg/ha,0.0
same,Herbicide rating (0-9) SETVI,[16]; 0.500 kg/ha,0.0
same,Herbicide rating (0-9) GLXMAW,[7]; 0.125 kg/ha,0.0
same,Herbicide rating (0-9) GLXMAW,[7]; 0.250 kg/ha,0.0
same,Herbicide rating (0-9) GLXMAW,[7]; 0.500 kg/ha,0.0
same,Herbicide rating (0-9) ORYSAT,[17]; 0.125 kg/ha,0.0
same,Herbicide rating (0-9) ORYSAT,[17]; 0.250 kg/ha,0.0
same,Herbicide rating (0-9) ORYSAT,[17]; 0.500 kg/ha,0.0
same,Herbicide rating (0-9) TRZAWO,[18]; 0.125 kg/ha,0.0
same,Herbicide rating (0-9) TRZAWO,[18]; 0.250 kg/ha,0.0
same,Herbicide rating (0-9) TRZAWO,[18]; 0.500 kg/ha,0.0
same,Herbicide rating (0-9) ZEAMX,[19]; 0.125 kg/ha,0.0
same,Herbicide rating (0-9) ZEAMX,[19]; 0.250 kg/ha,0.0
same,Herbicide rating (0-9) ZEAMX,[19]; 0.500 kg/ha,0.0
"CC(C)OC(=O)Cn1c(=O)n(C)c(=O)n(-c2cc(N3C(=O)C4CSCCN4C3=O)c(F)cc2Cl)c1=O (stereo not drawn) [Compound 12, Isopropyl 3-{2-chloro-4-fluoro-5-[5,6,8,8a-tetrahydro-1,3-dioxo-1H-imidazo[5,1c][1,4]-thiazin-2(3H)-yl]phenyl}tetrahydro-5-methyl-2,4,6-trioxo-s-triazine-1(2H)-acetate]",Herbicide rating (0-9) ABUTH,[1]; 0.125 kg/ha,9.0
same,Herbicide rating (0-9) ABUTH,[1]; 0.250 kg/ha,9.0
same,Herbicide rating (0-9) ABUTH,[1]; 0.500 kg/ha,9.0
same,Herbicide rating (0-9) AMBEL,[8]; 0.125 kg/ha,9.0
same,Herbicide rating (0-9) AMBEL,[8]; 0.250 kg/ha,9.0
same,Herbicide rating (0-9) AMBEL,[8]; 0.500 kg/ha,9.0
same,Herbicide rating (0-9) CASOB,[9]; 0.125 kg/ha,9.0
same,Herbicide rating (0-9) CASOB,[9]; 0.250 kg/ha,9.0
same,Herbicide rating (0-9) CASOB,[9]; 0.500 kg/ha,9.0
same,Herbicide rating (0-9) CHEAL,[10]; 0.125 kg/ha,9.0
same,Herbicide rating (0-9) CHEAL,[10]; 0.250 kg/ha,9.0
same,Herbicide rating (0-9) CHEAL,[10]; 0.500 kg/ha,9.0
same,Herbicide rating (0-9) TRZAWO,[20]; 0.125 kg/ha,2.5
same,Herbicide rating (0-9) TRZAWO,[20]; 0.250 kg/ha,2.5
same,Herbicide rating (0-9) TRZAWO,[20]; 0.500 kg/ha,2.5
same,Herbicide rating (0-9) CASOB,[14]; 0.125 kg/ha,9.0
same,Herbicide rating (0-9) CASOB,[14]; 0.250 kg/ha,9.0
same,Herbicide rating (0-9) CASOB,[14]; 0.500 kg/ha,9.0
same,Herbicide rating (0-9) CHEAL,[4]; 0.125 kg/ha,9.0
same,Herbicide rating (0-9) CHEAL,[4]; 0.250 kg/ha,9.0
same,Herbicide rating (0-9) CHEAL,[4]; 0.500 kg/ha,9.0
same,Herbicide rating (0-9) ECHCG,[6]; 0.125 kg/ha,0.0
same,Herbicide rating (0-9) ECHCG,[6]; 0.250 kg/ha,0.0
same,Herbicide rating (0-9) ECHCG,[6]; 0.500 kg/ha,0.0
same,Herbicide rating (0-9) ORYSAT,[17]; 0.125 kg/ha,0.0
same,Herbicide rating (0-9) ORYSAT,[17]; 0.250 kg/ha,0.0
same,Herbicide rating (0-9) ORYSAT,[17]; 0.500 kg/ha,0.0
same,Herbicide rating (0-9) TRZAWO,[18]; 0.125 kg/ha,0.0
same,Herbicide rating (0-9) TRZAWO,[18]; 0.250 kg/ha,0.0
same,Herbicide rating (0-9) TRZAWO,[18]; 0.500 kg/ha,0.0
